Consider three compounds from the NIST ThermoML archive (doi:10.1016/j.fluid.2015.03.009).

The conditions of the series: Liquid, Closed cell (Static) method.

Several values for one entry are separate records, joined by “and”; a condition that tells them apart may be missing. Equal values may be shown once. Numbers after ± are expanded uncertainties.

Consider `CCO` [ethanol], for which the “vapor or sublimation pressure” value was 88.59 ± 0.36 kPa and 88.58 ± 0.36 kPa (348.15 K); 224.37 ± 0.48 kPa and 224.31 ± 0.48 kPa (373.15 K).
Regarding `CCCCCC` [hexane], the “vapor or sublimation pressure” value (348.15 K) was 123.12 ± 0.38 kPa and 123.03 ± 0.38 kPa and 122.84 ± 0.38 kPa; the “vapor or sublimation pressure” value (373.15 K) was 247.22 ± 0.55 kPa and 245.99 ± 0.55 kPa and 245.79 ± 0.55 kPa.
As to `CO` [methanol], the “vapor or sublimation pressure” value was 150.71 ± 0.54 kPa and 150.69 ± 0.54 kPa and 150.67 ± 0.54 kPa (348.15 K); 352.64 ± 0.74 kPa and 352.62 ± 0.74 kPa and 352.7 ± 0.74 kPa (373.15 K).
